In patent US11292778B2, “Heterocyclyl polymethine IR chromophores” (The Regents of the University of California, priority 2017, dated 2022):
Where “and” joins values, the source holds several entries; their conditions need not be identical. Equal values may be shown once. Entries after “also recorded” stand apart in the source; their conditions may differ.

How the values were obtained:
Format in all cases: physicochemical
[1] = Emission spectra of the dyes in DCM; settings: dichloromethane; for emission (DCM) λmax: dyes 1, 3-6 and reference dyes; for Emission (CH2Cl2): Example 4 dyes, excitation 806-900 nm per dye
Source text: (§1) The absorbance spectra in FIG. 2 and FIG. 5 were obtained in DCM on a JASCO V-770 UV-Visible/[…] spectrophotometer with a 2000 nm/min or 4000 nm/min scan rate. Plotted are the baseline corrected and normalized data. The emission spectra in FIG. 2 were taken in DCM on either a Horiba Instruments PTI QuantaMaster Series fluorometer (6), a Fluoromax-3 spectrofluorometer (1, 3-5), or home-built InGaAs array detector (Princeton Instruments). For 6 the following parameters were used: ex. 610 nm, emission collected from 620-900 nm, slits 5 nm, step size 1 nm, integration time 1 s. Plotted is the DCM corrected, baseline corrected, normalized data. For 1, and 3-5, the following parameters were used: slits 5 nm, step size 1 nm, integration time, 0.25 s. Excitation values and emission collection were as follows: 1 (ex. 460, collection 470-800 nm), 5 (ex. 675 nm, collection 685-950 nm), 4 (ex. 840 nm, emission 850-1100 nm), 3 (ex. 730 nm, emission 950-1400). Plotted are the baseline corrected, normalized data. The emission spectra in FIG. 5 were taken in dichloromethane on a Horiba Instruments QuantaMaster Series fluorometer with excitation slits: 15 nm, emission slits: 30 nm, step size: 1 nm, integration time: 0.1 s and excitation wavelengths as indicated.

[2] = Absorbance spectra of the dyes in DCM (UV-Visible/NIR spectrophotometer); settings: dichloromethane; for absorption (DCM) ε: at absorption λmax; for absorption (DCM) λmax: in example paragraphs the longest-wavelength absorbance peak
Source text: as §1

[3] = Absolute fluorescence quantum yield using an integrating sphere; settings: for ΦF (fluorescence quantum yield) / QE, εΦF (quantum efficiency): dichloromethane; for ΦF (fluorescence quantum yield): absolute value
Protocol: Polymethine dyes disclosed herein are characterized with respect to their photophysics including absorption, emission, extinction coefficient, quantum yields, and fluorescence lifetime. All quantum yields values obtained are absolute quantum yields values measured using an integrating sphere. Photostabilities are evaluated by sample irradiation with high powered LEDs. Additionally, solvatochromism, solvent compatibility, and stability are assessed.

[4] = Photobleaching under continuous-wave irradiation at 532 nm; settings: for relative rate, krel (photobleaching): 532 nm irradiation; for relative rate, krel (photobleaching) / photostability (in words) / raw rate, k (photobleaching) / ε at 532 nm: dichloromethane; for raw rate, k (photobleaching): continuous-wave irradiation 532 nm, 0.53 fluence
Protocol: Photostabilities of the Flay series were measured under continuous-wave irradiation (532 nm, 0.53 fluence).

Compound | emission (DCM) λmax [1] | absorption (DCM) ε [2] | absorption (DCM) λmax [2] | Emission (CH2Cl2) [1] | other results
Cc1cc(-c2ccccc2)[o+]c2cc(N(C)C)ccc12 [Dye 1, 7-N,N-dimethylamino-4-methyl-flavylium perchlorate] | 587 nm | 17000 M⁻¹ cm⁻¹ | 510 nm |  | 
ClC1=C(/C=C/c2cc(-c3ccccc3)[o+]c3cc(N(c4ccccc4)c4ccccc4)ccc23)CCC/C1=C\C=C1/C=C(c2ccccc2)Oc2cc(N(c3ccccc3)c3ccccc3)ccc21.F[B-](F)(F)F [4-((E)-2-((E)-2-chloro-3-(2-((E)-7-(diphenylamino)-2-phenyl-4H-chromen-4-ylidene)ethylidene)cyclohex-1-en-1-yl)vinyl)-7-(diphenylamino)-2-phenylchromenylium tetrafluoroborate] |  |  | 1047 nm | 1079 nm | 
ClC1=C(/C=C/c2cc(-c3ccccc3)[o+]c3cc(N4CCC4)ccc23)CCC/C1=C\C=C1/C=C(c2ccccc2)Oc2cc(N3CCC3)ccc21.F[B-](F)(F)F [7-(azetidin-1-yl)-4-((E)-2-((E)-3-(2-((E)-7-(azetidin-1-yl)-2-phenyl-4H-chromen-4-ylidene)ethylidene)-2-chlorocyclohex-1-en-1-yl)vinyl)-2-phenylchromenylium tetrafluoroborate] |  | 2.07±0.01×10^5 M^−1cm^−1 | 1029 nm | 1059 nm | 
CN1C(=CC=CC=CC=CC2=[N+](C)c3ccccc3C2(C)C)C(C)(C)c2ccccc21.[I-] [HITCI, 1,1′,3,3,3′,3′-hexamethylindotricarbocyanine iodide, reference compound] |  |  |  |  | ΦF relative to Flav3 [3]: ~10 fold
ClC1=C(/C=C/c2cc(-c3ccccc3)[s+]c(-c3ccccc3)c2)CCC/C1=C/C=C1C=C(c2ccccc2)SC(c2ccccc2)=C1.F[B-](F)(F)F [IR-1061, reference compound] | 1081 nm |  |  |  | ΦF (fluorescence quantum yield) [3]: 0.32±0.04%
CN(C)c1ccc2c(c1)OC(c1ccccc1)=C/C2=C\C=C1/CCCC(/C=C/c2cc(-c3ccccc3)[o+]c3cc(N(C)C)ccc23)=C1Cl.F[B-](F)(F)F [4-((E)-2-((E)-2-chloro-3-(2-((E)-7-(dimethylamino)-2-phenyl-4H-chromen-4-ylidene)ethylidene)cyclohex-1-en-1-yl)vinyl)-7-(dimethylamino)-2-phenylchromenylium tetrafluoroborate] |  |  | 1026 nm | 1054 nm | 
ClC1=C(/C=C/c2cc(-c3ccccc3)[o+]c3ccc4ccccc4c23)CCC/C1=C\C=C1/C=C(c2ccccc2)Oc2ccc3ccccc3c21.F[B-](F)(F)F [1-((E)-2-((E)-2-chloro-3-((E)-2-(3-phenyl-1H-benzo[f]chromen-1-ylidene)ethylidene)cyclohex-1-en-1-yl)vinyl)-3-phenylbenzo[f]chromen-4-ium tetrafluoroborate] |  |  | 1014 nm | 1055 nm | 
C1=C(c2ccccc2)Oc2c(cc3c4c2CCCN4CCC3)/C1=C/C=C/C=C/c1cc(-c2ccccc2)[o+]c2c3c4c(cc12)CCCN4CCC3.F[B-](F)(F)F [11-phenyl-9-((1E,3E,5E)-5-(11-phenyl-2,3,6,7-tetrahydro-1H,5H,9H-pyrano[2,3-f]pyrido[3,2,1-ij]quinolin-9-ylidene)penta-1,3-dien-1-yl)-2,3,6,7-tetrahydro-1H,5H-pyrano[2,3-f]pyrido[3,2,1-ij]quinolin-12-ium tetrafluoroborate] |  | 2.5±0.1×10^5 M^−1cm^−1 | 897 nm | 934 nm | 
CN(C)c1ccc2c(c1)OC(c1ccccc1)=C/C2=C\C=C\c1cc(-c2ccccc2)[o+]c2cc(N(C)C)ccc12.[O-][Cl+3]([O-])([O-])[O-] [Dye 5, 7-(dimethylamino)-4-((E)-3-((E)-7-(dimethylamino)-2-phenyl-4H-chromen-4-ylidene)prop-1-en-1-yl)-2-phenylchromenylium perchlorate] | 766 nm |  | 746 nm |  | relative rate, krel (photobleaching) [4]: 1.00 ± .06; photostability relative to HITCI ([4]; 532 nm laser): 4 fold; photostability (in words) ([4]; 532 nm laser, listed as Flav3): extremely high photostabilities; also recorded: excellent photostabilities; raw rate, k (photobleaching) [4]: 1.00 ± 0.06 s^−1 × 10^−3; ε at 532 nm [4]: 2.0 ± 0.1 M^−1cm^−1 × 10^4; absorption (DCM) ε ([2]; listed as Flav3): ~220,000 M^−1cm^−1; absorption (DCM) λmax ([2]; listed as Flav3): ~745 nm; QE, εΦF (quantum efficiency) [3]: 6600 M⁻¹ cm⁻¹; ΦF (fluorescence quantum yield) [3]: 2.9±0.5% and 2.9%
ClC1=C(/C=C/c2cc(-c3ccccc3)[o+]c3c4c5c(cc23)CCCN5CCC4)CCC/C1=C\C=C1/C=C(c2ccccc2)Oc2c1cc1c3c2CCCN3CCC1.F[B-](F)(F)F [9-((E)-2-((E)-2-chloro-3-((E)-2-(11-phenyl-2,3,6,7-tetrahydro-1H,5H,9H-pyrano[2,3-f]pyrido[3,2,1-ij]quinolin-9-ylidene)ethylidene)cyclohex-1-en-1-yl)vinyl)-11-phenyl-2,3,6,7-tetrahydro-1H,5H-pyrano[2,3-f]pyrido[3,2,1-ij]quinolin-12-ium tetrafluoroborate] |  | 2.38±0.07×10^5 M^−1cm^−1 | 1061 nm | 1089 nm | 
CCN(CC)c1ccc2c(c1)OC(c1ccccc1)=C/C2=C\C=C1/CCCC(/C=C/c2cc(-c3ccccc3)[o+]c3cc(N(CC)CC)ccc23)=C1Cl.F[B-](F)(F)F [4-((E)-2-((E)-2-chloro-3-(2-((E)-7-(diethylamino)-2-phenyl-4H-chromen-4-ylidene)ethylidene)cyclohex-1-en-1-yl)vinyl)-7-(diethylamino)-2-phenylchromenylium tetrafluoroborate] |  | 1.8±0.2×10^5 M^−1cm^−1 | 1034 nm | 1062 nm | 
CN(C)c1ccc2c(c1)OC(c1ccccc1)=C/C2=C\c1cc(-c2ccccc2)[o+]c2cc(N(C)C)ccc12.O=C([O-])C(F)(F)F [Dye 6, (E)-7-(dimethylamino)-4-((7-(dimethylamino)-2-phenyl-4H-chromen-4-ylidene)methyl)-2-phenylchromenylium 2,2,2-trifluoroacetate] | 684 nm |  | 650 nm |  | relative rate, krel (photobleaching) [4]: 4 ± 1; photostability (in words) ([4]; 532 nm laser, listed as Flav1, 2,2,2-trifluoroacetate): extremely high photostabilities; also recorded: excellent photostabilities; raw rate, k (photobleaching) [4]: 0.43 ± 0.01 s^−1 × 10^−3; ε at 532 nm [4]: 0.23 ± 0.08 M^−1cm^−1 × 10^4; QE, εΦF (quantum efficiency) [3]: 100 M⁻¹ cm⁻¹; ΦF (fluorescence quantum yield) ([3]; 2,2,2-trifluoroacetate): 0.7±0.5% and 0.7%
ClC1=C(/C=C/c2cc(-c3ccccc3)[o+]c3c2ccc2ccccc23)CCC/C1=C\C=C1/C=C(c2ccccc2)Oc2c1ccc1ccccc21.F[B-](F)(F)F [4-((E)-2-((E)-2-chloro-3-((E)-2-(2-phenyl-4H-benzochromen-4-ylidene)ethylidene)cyclohex-1-en-1-yl)vinyl)-2-phenylbenzo chromen-1-ium tetrafluoroborate] |  |  | 998 nm | 1024 nm | 
CN(C)c1ccc2c(c1)OC(c1ccccc1)=C\C2=C/C=C/C=C/c1cc(-c2ccccc2)[o+]c2cc(N(C)C)ccc12.[O-][Cl+3]([O-])([O-])[O-] [Dye 4] | 908 nm |  | 862 nm |  | relative rate, krel (photobleaching) [4]: 4.0 ± 0.2; photostability (in words) ([4]; 532 nm laser, listed as Flav5): extremely high photostabilities; also recorded: excellent photostabilities; raw rate, k (photobleaching) [4]: 2.6 ± 0.2 s^−1 × 10^−3; ε at 532 nm [4]: 1.29 ± 0.08 M^−1cm^−1 × 10^4; Stoke's shift [1]: 46 nm; QE, εΦF (quantum efficiency) [3]: 10000 M⁻¹ cm⁻¹; QE, εΦF (quantum efficiency) ([3]; listed as Flav5): 10^3 M^−1cm^−1
